These are literature values, as cited in US9012511B2, “Nanoparticulate cinacalcet compositions” (Alkermes Pharma Ireland Limited, priority 2010, dated 2015).

Structures are written as SMILES. Where two headings read alike, the source gives them in different places.

For data set [1] the following is noted: fasted subjects; estimated.

For the compound `C[C@@H](NCCCc1cccc(C(F)(F)F)c1)c1cccc2ccccc12.Cl` [Cinacalcet HCl, Cinacalcet hydrochloride], the mean tmax was 6 h (fasting subjects), 4 h (high-fat fed subjects) and 3.5 h (low-fat fed subjects). Besides, the “difference in mean AUC∞ between high- and low-fat meals” value (single oral dose 90 mg) is 12 (9.9-26) %. Besides, the “mean (90% confidence intervals) AUC[infinity] increase relative to fasting” value is, setting by setting: (single oral dose 90 mg, high-fat, high-caloric meal) 68 (48 to 89) %; (single oral dose 90 mg, low-fat, low-caloric meal) 50 (33 to 70) %. Also, the absolute bioavailability in data set [1] is recorded as 20-25%.
